# Data published in patent US9630941B2 (priority 2008, dated 2017).
# Legend:
# [1] = Stability of THC-Val-HS HME transmucosal patch; details: for Assay (as a % of theoretical amount): HME transmucosal patch
# [2] = Control (IPBS) stability for the buccal homogenate study; assay type: physicochemical
# Protocol: (§1) b. Porcine Buccal Tissue Homogenate Stability
# (§2) Protein Concentration 2 mg/ml
# [3] = In vivo ocular bioavailability of THC after topical formulations
# [4] = Bioreversion: plasma stability, porcine plasma; assay type: in vitro ADME
# [5] = Porcine buccal tissue homogenate stability; assay type: in vitro ADME; details: protein concentration 2 mg/ml
# Protocol: as §1, §2
# [6] = Thermal stability, 120° C. for 10 min; assay type: physicochemical
# Protocol: C. Thermal Stability—120° C. for 10 min.
# [7] = Chemical stability pH dependent at 25° C.; assay type: physicochemical
# Protocol: B. Chemical Stability pH Dependent at 25° C.
# [8] = Plasma THC from HME buccal patches in swine model; assay type: in vivo
# Protocol: THC was used as control formulation. Plasma was sampled from each animal at predetermined times and the amount of THC in the plasma was determined.
# FIG. 20: Plasma THC concentrations as a function of time from THC-Val-HS loaded HME buccal patches. Data represents the mean value from 4 pigs. The animals were maintained under anesthesia for the first 4 hours and were then allowed to come out of anesthesia and given access to food and water.
# A dose dependent plasma concentration time profile was then evaluated.
# Plasma THC concentrations as a function of time and dose from THC-Val-HS loaded HME patches. Data represents the mean value. The animals for maintained under anesthesia for the first 4 hours and were then allowed to come out of anesthesia and given access to food and water.
# [9] = Maximum amount dissolved in topical formulations; assay type: physicochemical
# [10] = Aqueous solubility, pH dependent; assay type: physicochemical
# [11] = Plasma THC after rectal suppository (PEG 1000) in rat; details: polyethylene glycol 1000 base, dose equivalent to 1 mg THC
# [12] = test system: intraocular pressure (IOP) induced model of glaucoma; assay: Rabbit glaucoma model, IOP lowering after topical instillation; details: for Peak IOP drop, IOP as % of the baseline IOP: 50 μL topical
# [13] = THC-Val-HS 0.25% w/v in 0.1% Cremophor RH 40 + 0.02% BAK + 0.1% EDTA + 0.5% HPMC, 1 Hour
# [14] = THC-Val-HS 0.26% w/v in 2.5% HPβCD + 0.5% HPMC, 1 Hour
# [15] = THC-Val-HS 0.26% w/v in 2.5% HPβCD + 0.5% HPMC, 3 Hours
# [16] = THC-Val-HS 10% w/w Ocular Film, 1 Hour
# [17] = THC-Val-HS 10% w/w Ocular Film, 3 Hours
structure (smiles),measurement,setting,value
"CCCCCc1cc(OC(=O)C(NC(=O)CCC(=O)O)C(C)C)c2c(c1)OC(C)(C)C1CCC(C)=CC21 (stereo not drawn) [THC-Valinate-HS (15), THC-valinate-hemisuccinate]",Assay (as a % of theoretical amount),"[1]; 1 Month, 25° C./60% RH",110.6 ± 0.1%
same,Assay (as a % of theoretical amount),"[1]; 1 Month, 40° C./75% RH",80.9 ± 3.9%
same,Assay (as a % of theoretical amount),"[1]; 3 Month, 25° C./60% RH",108.3 ± 4.6%
same,Assay (as a % of theoretical amount),[1]; Initial,108.4 ± 0.2%
same,Stability in the hot-melt-extruded formulation,[1]; three month stability data,stable
same,K,[2],0.40 ± 0.02 ×10^−3 min^−1
same,"THC concentrations in aqueous humor, iris-ciliary bodies / anterior segment ocular tissues",[3]; 1 hour post topical application,significant THC concentrations
same,"Total THC concentration, Aqueous Humor",[3]; [13],62.1 ± 12.6 ng/100 μL
same,"Total THC concentration, Cornea",[3]; [13],1191.7 ± 231.1 ng/50 mg Tissue
same,"Total THC concentration, Iris-Cilliary Body",[3]; [13],51.44 ± 19.5 ng/50 mg Tissue
same,"Total THC concentration, Sclera",[3]; [13],913.4 ± 432.9 ng/250 mg Tissue
same,"Total THC concentration, Aqueous Humor",[3]; [14],69.4 ± 16.7 ng/100 μL
same,"Total THC concentration, Cornea",[3]; [14],1677.1 ± 172.1 ng/50 mg Tissue
same,"Total THC concentration, Iris-Cilliary Body",[3]; [14],65.8 ± 15.9 ng/50 mg Tissue
same,"Total THC concentration, Sclera",[3]; [14],882.2 ± 185.8 ng/250 mg Tissue
same,"Total THC concentration, Aqueous Humor",[3]; [15],38.3 ± 10.2 ng/100 μL
same,"Total THC concentration, Cornea",[3]; [15],1142.3 ± 415.9 ng/50 mg Tissue
same,"Total THC concentration, Iris-Cilliary Body",[3]; [15],57.9 ± 16.1 ng/50 mg Tissue
same,"Total THC concentration, Sclera",[3]; [15],241.8 ± 106.6 ng/250 mg Tissue
same,"Total THC concentration, Aqueous Humor",[3]; [16],61.3 ± 32.1 ng/100 μL
same,"Total THC concentration, Cornea",[3]; [16],1634.5 ± 756.5 ng/50 mg Tissue
same,"Total THC concentration, Iris-Cilliary Body",[3]; [16],86.03 ± 38.2 ng/50 mg Tissue
same,"Total THC concentration, Retina-Choroid",[3]; [16],17.02 ± 8.01 ng/50 mg Tissue
same,"Total THC concentration, Sclera",[3]; [16],1891.2 ± 771.5 ng/250 mg Tissue
same,"Total THC concentration, Aqueous Humor",[3]; [17],29.1 ± 14.2 ng/100 μL
same,"Total THC concentration, Cornea",[3]; [17],1043.4 ± 614.4 ng/50 mg Tissue
same,"Total THC concentration, Iris-Cilliary Body",[3]; [17],104.2 ± 41.2 ng/50 mg Tissue
same,"Total THC concentration, Retina-Choroid",[3]; [17],11.9 ± 4.9 ng/50 mg Tissue
same,"Total THC concentration, Sclera",[3]; [17],812.6 ± 501.4 ng/250 mg Tissue
same,K,[4],85.54 ± 3.74 ×10^−2 min^−1
same,T1/2,[4],8.11 ± 0.35 min
same,K,[5],2.96 ± 0.19 ×10^−3 min^−1
same,T1/2,[5],23.43 ± 1.49 min
same,Drug loading (%),[6],112.21 ± 4.99%
same,CBN content of the sample after heating,[6]; 120° C. for 10 min,0 µg
same,Drug remaining,[6]; 120° C. for 10 min,1350.13 ± 387.10 µg
same,THC content of the sample after heating,[6]; 120° C. for 10 min,80.26 ± 8.59 µg
same,Drug remaining (%),"[6]; 120° C. for 10 min, % of initial",(96.29 ± 3.89) %
same,"CBN content of the sample, initial",[6]; before heating,0 µg
same,"Initial, μg (drug itself)",[6]; before heating,1411.49 ± 459.10 µg
same,"THC content of the sample, initial",[6]; before heating,96.52 ± 3.72 µg
same,First order rate constant,"[7]; Buffer pH 5.0, 25° C.",Stable
same,First order rate constant,"[7]; Buffer pH 7.0, 25° C.",Stable
same,First order rate constant,"[7]; Buffer pH 9.0, 25° C.",Stable
same,First order rate constant,"[7]; Water, 25° C.",Stable
same,Dose dependence of THC blood levels from HME patches,"[8]; swine, 5, 10, 20 mg formulations",dose dependant
same,11-OH-THC or carboxy metabolite THC-COOH in plasma,"[8]; swine, buccal patch",not seen
same,THC levels in plasma from transmucosal HME patches,"[8]; swine, buccal patch, listed as THC-Val-HS",Significant plasma THC levels were observed
same,maximum amount that could be dissolved,[9]; Tocrisolve emulsion,0.97 % w/v
same,maximum amount that could be dissolved,[9]; micellar solution: HPβCD 15% + Cremophor RH 40 0.25% + BAK 0.01% + EDTA 0.1% + HPMC 0.5% w/v,0.89 % w/v
same,Aqueous Solubility,[10]; H20,8.50 ± 6.00 µg/mL
same,Aqueous Solubility,[10]; Water,16.54 ± 11.69 µM
same,Aqueous Solubility,[10]; pH 1.2,0.06 ± 0.03 µg/mL
same,Aqueous Solubility,"[10]; pH 1.2, listed as THC-Valine-HS",0.12 ± 0.06 µM
same,Aqueous Solubility,[10]; pH 2,0.09 ± 0.03 µg/mL
same,Aqueous Solubility,"[10]; pH 2, listed as THC-Valine-HS",0.17 ± 0.06 µM
same,Aqueous Solubility,[10]; pH 5,0.35 ± 0.02 µg/mL
same,Aqueous Solubility,"[10]; pH 5, listed as THC-Valine-HS",0.67 ± 0.04 µM
same,Aqueous Solubility,[10]; pH 6,12.74 ± 1.80 µg/mL
same,Aqueous Solubility,"[10]; pH 6, listed as THC-Valine-HS",24.80 ± 3.51 µM
same,Aqueous Solubility,[10]; pH 7,155.67 ± 31.19 µg/mL
same,Aqueous Solubility,"[10]; pH 7, listed as THC-Valine-HS",303.06 ± 60.72 µM
same,Aqueous Solubility,[10]; pH 8,117.04 ± 10.91 µg/mL
same,Aqueous Solubility,"[10]; pH 8, listed as THC-Valine-HS",227.86 ± 21.24 µM
same,Aqueous Solubility,[10]; pH 9,0.02 ± 0.00 µg/mL
same,Aqueous Solubility,"[10]; pH 9, listed as THC-Valine-HS",0.05 ± 0.00 µM
same,Blood levels after rectal administration,[11],significant blood levels
same,"Peak IOP drop, IOP as % of the baseline IOP","[12]; Tocrisolve emulsion, 0.97% w/v THC-Val-HS",53±3%
same,IOP-time profile compared with THC,[12]; at a lower dose,significantly better than that of THC
same,Duration of action (time taken for IOP to return to 90% of baseline),[12]; both formulations,about 4 hours
same,time to peak IOP drop after instilling,[12]; micellar solution and Tocrisolve emulsion,≤ 90 min
same,"Peak IOP drop, IOP as % of the baseline IOP","[12]; micellar solution, 0.89% w/v THC-Val-HS",62±3%
